Laboratory results: patent publication US20250129012A1, “ANTI-INFLAMMATORY AND ANALGESIC COMPOUNDS AND USE THEREOF” (JIANGSU ATOM BIOSCIENCE AND PHARMACEUTICAL CO., LTD., priority 2021, published 2025)
Read-outs that look alike come from different tables or passages of the source. Marks after values point to notes of the source that are not given here.

How the values were obtained:
[1] = test system: gouty arthritis in rats (urate crystals, left ankle joint); experiment: Pharmacodynamics experiment A on gouty arthritis in rats: paw volume; assay type: in vivo, SD rats; settings: for Paw volume versus model group, in words: time points after modeling; for Paw volume: Mean ± SEM
Protocol: (§1) Compounds 2, 17, 26 and 27 were prepared by grinding with 0.5% CMC-Na into a suspension of the corresponding concentration (0.06 mg/mL) for gavage before administration, and the volume of administration was 10 mL/kg. […] Before use, 0.5% CMC-Na was used for grinding and prepared into a suspension of the corresponding concentration (0.06 mg/mL) for gavage, and the volume of drug administered was 10 mL/kg.
(§2) Each group of subjects was prepared into a suspension of the corresponding concentration, and the administration volume was 10 mL/kg.
(§3) The crystalline arthritis model was prepared by intra-articular injection of urate crystals (40 mg/mL, in the left ankle joint of each rat). Different doses of the test drug were given separately by gavage administration. The day of administration was defined as day 1 of the experiment, and the drug was administered once a day for 10 consecutive days (pre-administration of the drug for 7 days prior to modeling, modeling on day 8, and continuation of the drug for 3 days). The experiment ended on day 10.
Paw volume was measured before administration, before urate injection, and 2, 4, 8, 10, 24, and 48 h after injection.
(§4) The data obtained from the experiment were statistically analyzed using IBM SPSS Statistics 22.0. All measurements were expressed as Mean±S.E.M s. The data were analyzed using SPSS 22.0 statistical software and variance chi-square test was performed on the parameters.

[2] = test system: gouty arthritis in rats (urate crystals, left ankle joint); experiment: Pharmacodynamics experiment A on gouty arthritis in rats: gait score; assay type: in vivo, SD rats; parameters: Gait Score: scale not given here; settings: 0.6 mg/kg gavage; for Gait versus model group, in words: time points after modeling, P<0.05 or P<0.01; for Gait Score: Mean ± SEM
Protocol: as §1, §2, §3
The degree of lameness of the modeled joints was observed and scored at the same time point.
as §4

[3] = test system: gouty arthritis in rats (urate crystals, left ankle joint); experiment: Pharmacodynamics experiment A on gouty arthritis in rats: pain score; assay type: in vivo, SD rats; parameters: Pain score: scale not given here; settings: 0.6 mg/kg gavage; for Pain versus model group, in words: time points after modeling, P<0.05 or P<0.01; for Pain score: Mean ± SEM
Protocol: as §1, §2, §3
The pain level was scored using the flexion and extension joint pain test scoring method at the same time point.
as §4

[4] = In vivo pharmacokinetics in SD rats
Protocol: Compound stock solution preparation: an appropriate amount of solid powder of the compounds were weighed separately, a certain amount of DMSO was added and 20 mg/mL of stock solution was obtained under vortex ultrasound.
Preparation of test compound for gavage: an appropriate amount of compound stock solution was taken by pipette, a certain amount of Solutol HS15 solution was added, the mixture was vortexed for 1 minute, then a certain amount of saline was added, and 1 mg/mL of solution was obtained after mixing well.
Preparation of test compounds for intravenous injection: an appropriate amount of compound stock solution was taken by pipette separately, a certain amount of Solutol HS15 solution was added, the mixture was vortexed for 1 minute, then a certain amount of physiological saline was added and a solution of 0.5 mg/mL was obtained after mixing well.
The animals were fasted overnight before administration by gavage, and food was given 4 hours after administration, during which they were free to drink. Two groups were set for each test compound, intravenous injection group and oral administration group, and the dose and mode of administration were shown in Table 12 below.
The blood samples were centrifuged at 4° C. for 5 min at 2,000 g to separate the plasma. The plasma samples were analyzed by LC/MS/MS to detect the concentration of each test compound in the plasma samples.
The parameters related to the […] were obtained by calculations with WinNonlin® Professional software.

[5] = 2 h after modeling, 0.6 mg/kg gavage
[6] = 4 h after modeling, 0.6 mg/kg gavage
[7] = 8 h after modeling, 0.6 mg/kg gavage
[8] = 10 h after modeling, 0.6 mg/kg gavage
[9] = 24 h after modeling, 0.6 mg/kg gavage
[10] = 48 h after modeling, 0.6 mg/kg gavage
[11] = before modeling, 0.6 mg/kg gavage once a day
[12] = Sprague-Dawley, rat, in vivo, iv, 1 mg/kg
[13] = Sprague-Dawley, rat, in vivo, po, 10 mg/kg

Compound	Paw volume versus model group, in words ([1]; 0.6 mg/kg gavage)	Paw volume [1, 5]	Paw volume [1, 6]	Paw volume [1, 7]	Paw volume [1, 8]	Paw volume [1, 9] [cm^3]	Paw volume [1, 10]	Paw volume [1, 11] [cm^3]	Gait versus model group, in words [2]	Gait Score ([2]; 2 h after modeling)	Gait Score ([2]; 4 h after modeling)	Gait Score ([2]; 8 h after modeling)	Gait Score ([2]; 10 h after modeling)	Gait Score ([2]; 24 h after modeling)	Gait Score ([2]; 48 h after modeling)	Gait Score ([2]; before modeling)	Pain versus model group, in words [3]	Pain score ([3]; 2 h after modeling)	Pain score ([3]; 4 h after modeling)	Pain score ([3]; 8 h after modeling)	also measured
COc1cc2c(c(OC)c1OC)-c1ccc(NS(C)(=O)=O)c(=O)cc1[C@@H](NC(C)=O)CC2 [Compound 2, (S)—N-(1,2,3-trimethoxy-10-methanesulfonylamino-9-oxo-5,6,7,9-tetrahydrobenzo[a]heptalen-7-yl)acetamide]	significantly reduce the paw volume at 2 h, 4 h, and 48 h	2.51 ± 0.06* cm^3	2.54 ± 0.04* cm^3	2.63 ± 0.06 cm^3	2.59 ± 0.07 cm^3	2.52 ± 0.08	2.35 ± 0.06* cm^3	2.18 ± 0.02	significantly improved the gait at 2 h, 8 h, 24 h, and 48 h	1.10 ± 0.10	1.10 ± 0.10	1.10 ± 0.10	1.20 ± 0.13	1.00 ± 0.00	1.00 ± 0.00	0.00 ± 0.00	significantly improved pain at 2 h, 4 h, 8 h, 10 h, 24 h, and 48 h	2.70 ± 0.68	1.30 ± 0.52	3.30 ± 0.54	Pain score ([3]; 10 h after modeling): 2.20 ± 0.68; Pain score ([3]; 24 h after modeling): 1.30 ± 0.62; Pain score ([3]; 48 h after modeling): 1.00 ± 0.67; Pain score ([3]; before modeling): 0.00 ± 0.00
COc1cc2c(c(OC)c1OC)-c1ccc(=O)c(OC3CCOC3)cc1[C@@H](NC(C)=O)CC2 (stereo partly drawn) [Compound 27, (S)—N-(1,2,3-trimethoxy-10-oxo-9-[(tetrahydrofuran-3-yl)oxy]-5,6,7,10-tetrahydrobenzo[a]heptalen-7-yl)acetamide]	significantly reduce the paw volume at 2 h, 4 h, 8 h, 10 h, and 48 h	2.51 ± 0.04** cm^3	2.54 ± 0.03* cm^3	2.57 ± 0.04* cm^3	2.55 ± 0.04* cm^3	2.50 ± 0.07	2.29 ± 0.04** cm^3	2.16 ± 0.04	significantly improved the gait at 2 h, 24 h, and 48 h	1.00 ± 0.00	1.10 ± 0.10	1.40 ± 0.22	1.20 ± 0.20	1.00 ± 0.00	1.00 ± 0.00	0.00 ± 0.00	significantly improved gait at 2 h, 8 h, 10 h, 24 h, and 48 h	2.00 ± 0.67	2.80 ± 0.68	3.30 ± 0.47	Pain score ([3]; 10 h after modeling): 2.50 ± 0.65; Pain score ([3]; 24 h after modeling): 1.50 ± 0.60; Pain score ([3]; 48 h after modeling): 1.00 ± 0.60; Pain score ([3]; before modeling): 0.00 ± 0.00
CNC(=O)c1ccc2c(cc1=O)[C@@H](NC(C)=O)CCc1cc3c(c(OC)c1-2)OCO3 [Compound 125, (S)-6-acetamido-13-methoxy-N-methyl-4-oxo-4,6,7,8-tetrahydroheptalen[1′,2′:4,5]benzo[1,2-d][1,3]dioxolane-3-carboxamide]																					F ([4]; Gavage - 10 mg/kg, calculated by AUCINF): 93.0%; AUC(0-inf) ([4]; Sprague-Dawley, rat, in vivo, po, Gavage - 10 mg/kg, read-out: AUCINF): 5460 ng·h/mL; Cmax ([4]; Sprague-Dawley, rat, in vivo, po, Gavage - 10 mg/kg, read-out: Cmax): 4150 ng/mL; MRT inf ([4]; Sprague-Dawley, rat, in vivo, po, Gavage - 10 mg/kg, read-out: MRTINF): 1.8 h; Tmax ([4]; Sprague-Dawley, rat, in vivo, po, Gavage - 10 mg/kg, read-out: Tmax): 0.25 h; half-life ([4]; Sprague-Dawley, rat, in vivo, po, Gavage - 10 mg/kg, read-out: t1/2 (converted)): 3.33 h; AUC(0-inf) ([4]; Sprague-Dawley, rat, in vivo, Intravenous injection - 1 mg/kg, read-out: AUCINF): 587 ng·h/mL; clearance ([4]; Sprague-Dawley, rat, in vivo, Intravenous injection - 1 mg/kg, read-out: CL (converted)): 28.5 mL/min/kg; MRT inf ([4]; Sprague-Dawley, rat, in vivo, Intravenous injection - 1 mg/kg, read-out: MRTINF): 0.675 h; Vd ([4]; Sprague-Dawley, rat, in vivo, Intravenous injection - 1 mg/kg, read-out: VSS): 1.15 L/kg; half-life ([4]; Sprague-Dawley, rat, in vivo, Intravenous injection - 1 mg/kg, read-out: t1/2 (converted)): 1.19 h
[2H]C([2H])([2H])Oc1c(OC)c(OC)cc2c1-c1ccc(C(=O)NC)c(=O)cc1[C@@H](NC(C)=O)CC2 [Compound 132, (S)-7-acetamido-2,3-dimethoxy-1-trideuteromethoxy-N-methyl-9-oxo-5,6,7,9-tetrahydrobenzo[a]heptalen-10-carboxamide]																					F ([4]; Sprague-Dawley, rat, in vivo, 10 mg/kg): 47.5%; AUC(0-inf) [4, 12]: 702 ng·h/mL; MRT inf [4, 12]: 1.06 h; Vd [4, 12]: 1.39 L/kg; clearance [4, 12]: 24.3 mL/min/kg; half-life [4, 12]: 2.12 h; AUC(0-inf) [4, 13]: 3340 ng·h/mL; Cmax [4, 13]: 1780 ng/mL; MRT inf [4, 13]: 2.1 h; Tmax [4, 13]: 0.25 h; half-life [4, 13]: 1.39 h
